Assay results published in patent US8742123B2, “HIV integrase inhibitors from pyridoxine” (TaiMed Biologics, Inc., priority 2008, dated 2014).
pEC50, pIC50: −log10 of the molar value.

What follows are molecules tested on HIV-1 isolate 91US005 (assay: acute infection assay in PHA-stimulated PBMCs, supernatant RT activity). Conditions: Human immunodeficiency virus 1, PBMC, 144 h, HIV-1 isolate 91US005, 6 day incubation.
Assay type: cell-based
Protocol: (§1) Acute infection assays using fresh human phytohemagglutinin (PHA)-stimulated peripheral blood mononuclear cells (PBMCs) were carried out. PBMCs were stimulated with IL-2 and infected with one of two wild-type drug-sensitive clinical HIV-1 isolates. The strains HIV-1 used for the infections, 91US005 (primary R5 strain of HIV-1) and 94US33931N, are both Group M, Subtype B viruses. Antiviral activity was determined as a reduction in supernatent reverse transcriptase (RT) activity after a 6 day incubation.

pEC50 | SMILES
8.22 | Cc1cn([C@H]2C[C@H](N=[N+]=[N-])[C@@H](CO)O2)c(=O)[nH]c1=O [Retrovir (AZT), 3-Azido-3-deoxythymine (Zidovudine), reference compound]

These molecules were tested on HIV-1 isolate 94US33931N in the same assay as above. Conditions: Human immunodeficiency virus 1, PBMC, 144 h, 6 day incubation.
Assay type: cell-based
Protocol: as §1

pEC50 | SMILES
8.52 | Cc1cn([C@H]2C[C@H](N=[N+]=[N-])[C@@H](CO)O2)c(=O)[nH]c1=O [Retrovir (AZT), 3-Azido-3-deoxythymine (Zidovudine), reference compound]

These molecules were tested against T1, recombinant HIV-1 integrase (Human immunodeficiency virus type 1 group M subtype B, UniProt P12497) (assay: integrase strand transfer assay). Conditions: compounds added after assembly, 10% DMSO, read-out: ST IC50.
T1 construct: Recombinant integrase (250 ng/well) was assembled onto the immobilized donor oligonucleotide
Assay type: biochemical
Protocol: IC50 was determined for the compounds of the inventions based on data generated in strand transfer assays. The IC50 is a measure of the ability of the compounds tested to inhibit the integration of 3′-processed oligonucleotides by recombinant HIV-1 integrase.
Strand transfer assays were performed essentially as described in Hazuda, D. J.; Felock, P.; Hastings, J. C.; Pramanik, B.; Wolfe, A. J. Virol. 1997, 71, 7005-7011). Donor DNA (1.5 pmol/well), biotinylated on the 5′ end of the strand processed by integrase, was immobilized onto streptavidin-coated microtiter plates. Recombinant integrase (250 ng/well) was assembled onto the immobilized donor oligonucleotide in reaction buffer (20 mM Hepes, pH 7.6, 5 mM B-mercaptoethanol, 50 ug/mL bovine serum albumin) containing 30 mM MnCl2. Excess enzyme was removed, and the complexes were washed extensively prior to the addition of the target DNA substrate. The target DNA (0.75 pmoles/well) substrate was labeled on each 3′ end with FITC. After strand transfer, the FITC-labeled products were detected using an anti-FITC antibody conjugated with alkaline phosphatase (Roche) and a chemiluminescent substrate (Tropix CSPD with Sapphire II enhancer, Applied Biosystems). The assay was performed in a final concentration of 10% DMSO. To specifically evaluate inhibition of strand transfer, compounds were added after assembly, just prior to the addition of the target DNA.
The results of the integrase strand transfer assay are reported as IC50 values. IC50 values were determined using a sigmoidal dose-response equation. The formula used for calculating % inhibition was: % Inhibition=[1-(sample counts/average of positive control)]*100. […] Using GraphPad Prism or ActivityBase (IDBS) software IC50 was determined using following sigmoidal dose-response equation: Y=(A+((B−A)/(1+((C/X)^D))))

SMILES | pIC50
O=C(NCc1ccc(F)c(Cl)c1)c1cnc(C(=O)NO)c(O)c1CO [Example 14, N^5-(3-chloro-4-fluorobenzyl)-N2,3-dihydroxy-4-(hydroxymethyl)pyridine-2,5-dicarboxamide] | 7.57
O=C(NO)c1ncc(COCc2ccccc2)c(CO)c1O [Example 18, 5-(Benzyloxymethyl)-N,3-dihydroxy-4-(hydroxymethyl)picolinamide] | 7.06

What follows are molecules tested on wild type NL-4.3 (assay: multi-cycle infection assay in MT-4 cells (MTT cytoprotection)). Conditions: Human immunodeficiency virus 1, MT4, 144 h; MT-4 cells, wild type NL-4.3, 6 days, MTT; read-out: EC50 (nM) multi-cycle.
Assay type: cell-based, HIV-1
Protocol: The antiviral efficacies of the integrase inhibitor compounds of the invention were evaluated based on EC50 measures obtained from two different in vitro HIV infection assay using cultured MT-4 cells: (1) a multi-cycle infection where cells were infected with wild type NL-4.3) and (2) a single-cycle infection where the cells were infected with a luciferase-bearing, envelope defective (env-) NL-4.3 virus pseudotyped with HIV-1 env (HXBc2.
The incubation period for the multi-cycle infection assay was 6 days. Cell viability (cytoprotection) and EC50 were determined using the colorimetric MTT assay (A. J. Japour et al, Antimicrobial Agents and Chemotherapy, 37, 1095-1101, 1993 and R. Pauwels et al. Journal of Virological Methods, 20, 309-321, 1988).

SMILES | EC50
O=C(NCc1ccc2c(c1)OCO2)c1cnc(C(=O)NO)c(O)c1CO [Example 4, N^5-(benzo[d][1,3]dioxol-5-ylmethyl)-N2,3-dihydroxy-4-(hydroxymethyl)pyridine-2,5-dicarboxamide] | > 10000 nM
COc1ccc(CNC(=O)c2cnc(C(=O)NOCc3ccccc3)c(OCc3ccccc3)c2CO)cc1 [Example 5, N^2,3-bis(benzyloxy)-4-(hydroxymethyl)-N^5-(4-methoxybenzyl)pyridine-2,5-dicarboxamide] | 900 nM
COc1ccc(CNC(=O)c2cnc(C(=O)NO)c(O)c2CO)cc1 [Example 6, N^2,3-dihydroxy-4-(hydroxymethyl)-N^5-(4-methoxybenzyl)pyridine-2,5-dicarboxamide] | 1000 nM
O=C(NCc1cc(F)cc(F)c1)c1cnc(C(=O)NOCc2ccccc2)c(OCc2ccccc2)c1CO [Example 7, N^2,3-bis(benzyloxy)-N^5-(3,5-difluorobenzyl)-4-(hydroxymethyl)pyridine-2,5-dicarboxamide] | 1500 nM
O=C(NCc1cc(F)cc(F)c1)c1cnc(C(=O)NO)c(O)c1CO [Example 8, N^5-(3,5-difluorobenzyl)-N^2,3-dihydroxy-4-(hydroxymethyl)pyridine-2,5-dicarboxamide] | > 10000 nM
O=C(NO)c1ncc(CNCc2ccc(F)cc2)c(CO)c1O [Example 9] | 1000 nM
O=C(NO)c1ncc(CNCc2cc(F)cc(F)c2)c(CO)c1O [Example 10, 5-((3,5-difluorobenzylamino)methyl)-N,3-dihydroxy-4-(hydroxymethyl)picolinamide] | > 10000 nM
O=C(NO)c1ncc(CNCc2ccc3c(c2)OCO3)c(CO)c1O [Example 11, 5-((benzo[d][1,3]dioxol-5-ylmethylamino)methyl)-N,3-dihydroxy-4-(hydroxymethyl)picolinamide] | 300 nM
COCc1c(C(=O)N(C)Cc2ccc(F)cc2)cnc(C(=O)NO)c1O [Example 12, N^5-(4-fluorobenzyl)-N2,3-dihydroxy-4-(methoxymethyl)-N^5-methylpyridine-2,5-dicarboxamide] | 14000 nM
O=C(NCc1ccc(F)c(Cl)c1)c1cnc(C(=O)NOCc2ccccc2)c(OCc2ccccc2)c1CO [Example 13, N^2,3-bis(benzyloxy)-N^5-(3-chloro-4-fluorobenzyl)-4-(hydroxymethyl)pyridine-2,5-dicarboxamide] | > 10000 nM
O=C(NCc1ccc(F)c(Cl)c1)c1cnc(C(=O)NO)c(O)c1CO [Example 14, N^5-(3-chloro-4-fluorobenzyl)-N2,3-dihydroxy-4-(hydroxymethyl)pyridine-2,5-dicarboxamide] | 123 nM
O=C(NCc1ccc(Cl)c(Cl)c1)c1cnc(C(=O)NOCc2ccccc2)c(OCc2ccccc2)c1CO [Example 15, N^2,3-bis(benzyloxy)-N^5-(3,4-dichlorobenzyl)-4-(hydroxymethyl)pyridine-2,5-dicarboxamide] | > 10000 nM
O=C(NCc1ccc(Cl)c(Cl)c1)c1cnc(C(=O)NO)c(O)c1CO [Example 16, N^5-(3,4-dichlorobenzyl)-N^2,3-dihydroxy-4-(hydroxymethyl)pyridine-2,5-dicarboxamide] | 700 nM
COc1ccc(COCc2cnc(C(=O)NO)c(O)c2CO)cc1 [Example 17, N,3-Dihydroxy-4-(hydroxymethyl)-5-((4-methoxybenzyloxy)methyl)-picolinamide] | 2000 nM
O=C(NO)c1ncc(COCc2ccccc2)c(CO)c1O [Example 18, 5-(Benzyloxymethyl)-N,3-dihydroxy-4-(hydroxymethyl)picolinamide] | 86 nM
COc1ccc(COCc2cnc(C(=O)NO)c3c2COC(C)(C)O3)cc1 [Example 19, N-hydroxy-5-((4-methoxybenzyloxy)methyl)-2,2-dimethyl-4H-[1,3]dioxino[4,5-c]pyridine-8-carboxamide] | 5060 nM
O=C(NCc1ccc(F)c(F)c1)c1cnc(C(=O)NO)c(O)c1CO [Example 20, N^5-(3,4-difluorobenzyl)-N^2,3-dihydroxy-4-(hydroxymethyl)pyridine-2,5-dicarboxamide] | 30 nM
O=C(NO)c1ncc(CNc2ccc(F)cc2)c(CO)c1O [Example 21, 5-[(4-Fluoro-phenylamino)-methyl]-3-hydroxy-4-hydroxymethyl-pyridine-2-carboxylic Acid Hydroxyamide] | 4.3 nM
O=C(Nc1cnc(C(=O)NO)c(O)c1CO)c1ccc(F)cc1 [Example 23, 5-(4-Fluoro-benzoylamino)-3-hydroxy-4-hydroxymethyl-pyridine-2-carboxylic Acid Hydroxyamide] | 6300 nM
O=C(NO)c1ncc(CN(Cc2ccccc2)c2ccc(F)cc2)c(CO)c1O [Example 25, 5-{[Benzyl-(4-fluoro-phenyl)-amino]-methyl}-3-hydroxy-4-hydroxymethyl-pyridine-2-carboxylic Acid Hydroxyamide] | 175 nM
O=C(Nc1ccc(F)cc1)Nc1cnc(C(=O)NO)c(O)c1CO [Example 27, 5-[3-(4-Fluoro-phenyl)-ureido]-3-hydroxy-4-hydroxymethyl-pyridine-2-carboxylic Acid Hydroxyamide] | 1100 nM
O=C(NO)c1ncc(COc2ccc(F)cc2)c(CO)c1O [Example 28, 5-(4-Fluoro-phenoxymethyl)-3-hydroxy-4-hydroxymethyl-pyridine-2-carboxylic Acid Hydroxyamide] | 186 nM
COC(=O)N(Cc1ccc(F)cc1)Cc1cnc(C(=O)NO)c(O)c1CO [Example 65, (4-Fluoro-benzyl)-(5-hydroxy-6-hydroxycarbamoyl-4-hydroxymethyl-pyridin-3-ylmethyl)-carbamic Acid Methyl Ester] | > 10000 nM
O=C(NO)c1ncc(CCc2ccc(F)cc2)c(CO)c1O [Example 67, 5-[2-(4-Fluoro-phenyl)-ethyl]-3-hydroxy-4-hydroxymethyl-pyridine-2-carboxylic Acid Hydroxyamide] | 235 nM
O=C(NO)c1ncc(CS(=O)(=O)Cc2ccc(F)cc2)c(CO)c1O [Example 71, 5-(4-Fluoro-phenylmethanesulfonylmethyl)-3-hydroxy-4-hydroxymethyl-pyridine-2-carboxylic Acid Hydroxyamide] | 4.3 nM
Cc1c(C(=O)NCc2ccc(F)c(Cl)c2)cnc(C(=O)NO)c1O [Example 74, 3-Hydroxy-4-methyl-pyridine-2,5-dicarboxylic Acid 5-(3-chloro-4-fluoro-benzylamide)2-hydroxyamide] | 267 nM
